The values below come from patent US20220235065A1 (Epizyme, Inc., priority 2016, published 2022).

One assay concerns the target T1, EHMT1 (Homo sapiens, UniProt Q9H9B1).
T1 sequence (Q9H9B1 1-1298): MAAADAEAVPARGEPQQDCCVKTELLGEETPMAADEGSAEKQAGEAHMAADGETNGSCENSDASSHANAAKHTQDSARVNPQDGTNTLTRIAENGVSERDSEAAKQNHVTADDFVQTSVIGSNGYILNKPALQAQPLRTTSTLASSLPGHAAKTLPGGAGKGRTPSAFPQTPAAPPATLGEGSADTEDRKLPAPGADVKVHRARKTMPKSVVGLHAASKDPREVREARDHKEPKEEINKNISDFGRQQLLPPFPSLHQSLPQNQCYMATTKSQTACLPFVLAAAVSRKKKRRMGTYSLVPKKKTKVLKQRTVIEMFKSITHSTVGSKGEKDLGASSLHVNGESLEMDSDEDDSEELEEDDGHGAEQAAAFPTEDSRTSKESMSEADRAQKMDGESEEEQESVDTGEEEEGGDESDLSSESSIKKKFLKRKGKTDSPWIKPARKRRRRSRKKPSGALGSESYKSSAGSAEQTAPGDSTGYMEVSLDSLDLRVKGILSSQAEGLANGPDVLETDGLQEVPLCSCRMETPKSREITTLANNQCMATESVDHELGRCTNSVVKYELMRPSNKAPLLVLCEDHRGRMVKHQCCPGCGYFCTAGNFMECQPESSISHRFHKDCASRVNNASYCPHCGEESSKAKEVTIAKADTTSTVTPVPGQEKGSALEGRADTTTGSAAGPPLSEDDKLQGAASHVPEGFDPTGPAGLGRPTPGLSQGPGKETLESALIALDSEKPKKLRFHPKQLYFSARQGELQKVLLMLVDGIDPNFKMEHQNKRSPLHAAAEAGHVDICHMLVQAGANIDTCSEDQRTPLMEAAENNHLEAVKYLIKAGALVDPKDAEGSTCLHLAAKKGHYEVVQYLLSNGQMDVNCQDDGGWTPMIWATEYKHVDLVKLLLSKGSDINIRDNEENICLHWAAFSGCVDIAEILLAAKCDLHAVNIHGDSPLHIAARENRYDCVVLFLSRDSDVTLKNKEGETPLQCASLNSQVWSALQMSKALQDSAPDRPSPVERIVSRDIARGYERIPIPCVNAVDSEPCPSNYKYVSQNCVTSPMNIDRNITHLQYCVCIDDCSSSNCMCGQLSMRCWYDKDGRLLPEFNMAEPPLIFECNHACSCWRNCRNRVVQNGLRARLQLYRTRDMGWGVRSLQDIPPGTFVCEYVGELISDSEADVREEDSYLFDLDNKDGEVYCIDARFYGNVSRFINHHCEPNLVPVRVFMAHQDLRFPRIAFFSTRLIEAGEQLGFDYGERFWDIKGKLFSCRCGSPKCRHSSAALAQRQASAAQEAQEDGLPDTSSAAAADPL
Description: EHMT1 PEP (EHMT1 peptide enzyme assay). The conditions noted are these: peptide substrate enzyme assay. It counts as biochemical.

Assay [1] addresses T2, recombinant purified human EHMT2 913-1193 (Homo sapiens, UniProt Q96KQ7).
T2 construct: Recombinant purified human EHMT2 913-1193 (55 μM) synthesized by Viva was used for all experiments; purchased Viva
T2 sequence (Q96KQ7 913-1193): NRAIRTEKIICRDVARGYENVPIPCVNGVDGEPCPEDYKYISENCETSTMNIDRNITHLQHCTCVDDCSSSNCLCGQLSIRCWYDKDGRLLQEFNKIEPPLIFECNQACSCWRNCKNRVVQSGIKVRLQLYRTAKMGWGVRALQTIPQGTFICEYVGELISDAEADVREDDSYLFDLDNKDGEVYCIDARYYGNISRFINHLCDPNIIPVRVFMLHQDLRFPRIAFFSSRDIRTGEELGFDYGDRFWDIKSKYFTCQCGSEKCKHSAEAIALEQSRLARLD
Description: EHMT2 enzyme assay on histone peptide substrate (3H-SAM Flashplate). Type of assay: biochemical. The conditions noted are these: read-out: EHMT2 PEP (IC50 μM). In a few lines:
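Compounds (10-point 3-fold series, top 50 μM final, 2% DMSO) preincubated 30 min with 0.031 nM EHMT2 in 20 mM Bicine pH 7.5, 1 mM TCEP; reaction started with 3H-SAM and biotinylated H3 1-15 peptide, both at Km, run 60 min at room temperature. Flashplate capture; IC50 from four-parameter fit, triplicates.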

Regarding `CNc1cc(C)nc(Nc2ccc(OC)c(-c3cc4c(cn3)CC(=O)N4)c2)n1` [Compound 219], the IC50 against EHMT1 was 0.1 to 1 µM; in assay [1], 1 to 10 µM.

As for `CNc1cc(C)nc(Nc2ccc(OC)c(-c3cc4[nH]ccc4cn3)c2OC)n1` [Compound 220], the IC50 against EHMT1 is 1 to 10 µM; in assay [1], greater than 10 µM.

Take `CNc1cc(C)nc(Nc2ccc(OC)c(-c3cc4[nH]ccc4cn3)c2F)n1` [Compound 221]: the IC50 is less than 0.1 µM against EHMT1 and 0.1 to 1 µM in assay [1].

As to `CNCc1cnn(-c2c(OC)ccc(Nc3nc(C)cc(NC)n3)c2OC)c1` [Compound 222], the IC50 was less than 0.1 µM on EHMT1 and 0.1 to 1 µM in assay [1].

Regarding `CNc1cc(C)nc(Nc2ccc(OC)c(-c3cnc4cc[nH]c4c3)c2)n1` [Compound 223], the IC50 (at EHMT1; in assay [1]) was less than 0.1 µM in each case.

For `CNc1cc(-c2cc(Nc3nc(C)cc(NC)n3)ccc2OC)ncn1` [Compound 225], the concentration for half-maximal inhibition (IC50) against EHMT1 is less than 0.1 µM; in assay [1] it was 1 to 10 µM.

Regarding `CNc1cc(C)nc(Nc2ccc(OC)c(-c3cc4[nH]ccc4nc3C)c2)n1` [Compound 228], the IC50 (on EHMT1; in assay [1]) was less than 0.1 µM in each case.

On to `CNc1cc(C)nc(Nc2ccc(OC)c(-c3cc4[nH]cc(F)c4cn3)c2)n1` [Compound 229], for which the results for the IC50 (against EHMT1; in assay [1]) were less than 0.1 µM and 0.1 to 1 µM, respectively.

With `CNc1cc(-c2cc(Nc3nc(C)cc(NC)n3)ccc2OC)nc(C)n1` [Compound 230], the IC50 on EHMT1 is less than 0.1 µM; in assay [1] it was 0.1 to 1 µM.

Consider `COc1cc(NC2CCNCC2)ccc1-c1cc2[nH]ccc2cn1` [Compound 231], for which the IC50 (against EHMT1; in assay [1]) was 1 to 10 µM in each case.

On to `CNc1cc(C)nc(Nc2ccc(OC)c(-c3cc(C4CC4)ncn3)c2)n1` [Compound 232], for which the IC50 was 1 to 10 µM on EHMT1 and greater than 10 µM in assay [1].

As to `CNc1cc(C)nc(Nc2ccc(OC)c(-c3cc(C4CC4)cnn3)c2)n1` [Compound 233], the IC50 against EHMT1 was in the range of 0.1 to 1 µM; in assay [1], 1 to 10 µM.

`CNc1cc(C)nc(Nc2ccc(OC)c(-c3cn4ccnc4cn3)c2)n1` [Compound 234]: the results for the IC50 (against EHMT1; in assay [1]) were 0.1 to 1 µM and greater than 10 µM, respectively.

In the case of `CNc1cc(C)nc(Nc2ccc(OC)c(-c3cc4cnoc4cn3)c2)n1` [Compound 235], the IC50 (at EHMT1; in assay [1]) was greater than 10 µM each time.

For `COc1cc(NC2CCNCC2)ccc1-c1cc(C2CC2)cnn1` [Compound 236], the IC50 (at EHMT1; in assay [1]) was greater than 10 µM in each case.

Consider `CNc1cc(C)nc(Nc2ccc(OC)c(-c3cc4[nH]ccc4c(C)n3)c2)n1` [Compound 237], for which the IC50 (against EHMT1; in assay [1]) was less than 0.1 µM each time.

As to `CNC1=Nc2cc(-c3[nH]c4cnccc4c3C)c(OC)cc2C12CCC2` [Compound 238, 5′-methoxy-N-methyl-6′-(3-methyl-1H-pyrrolo[2,3-c]pyridin-2-yl)spiro[cyclobutane-1,3′-indol]-2′-amine], the IC50 (at EHMT1; in assay [1]) was less than 0.1 µM throughout.

For the molecule `CNc1cc(C)nc(Nc2ccc(C)c(C(=O)Nc3cccnc3)c2)n1` [Compound 239], the IC50 (against EHMT1; in assay [1]) was greater than 10 µM throughout.

`CNc1cc(C)nc(Nc2ccc(Cl)c(C(=O)Nc3cccnc3)c2)n1` [Compound 240]: the IC50 against EHMT1 was 1 to 10 µM; in assay [1], greater than 10 µM.

On to `CNc1cc(C)nc(Nc2ccc(C)c(-c3cc4ccncc4[nH]3)c2)n1` [Compound 241], for which the IC50 (on EHMT1; in assay [1]) was less than 0.1 µM in each case.

Take `CNc1cc(C)nc(Nc2cccc(C(=O)Nc3cccnc3)c2)n1` [Compound 242]: the IC50 (against EHMT1; in assay [1]) was greater than 10 µM each time.
